According to patent US20250092030A1, “ENHANCERS OF PARTICULATE GUANYLYL CYCLASE RECEPTOR A” (Mayo Foundation for Medical Education and Research, priority 2023, published 2025):
Where “and” joins values, the source holds several entries; their conditions need not be identical. Equal entries are not always repeated.

Target: T1, particulate guanylyl cyclase receptor A (pGC-A) (Homo sapiens, UniProt P16066)
T1 construct: expressed in transfected cells; host or cells: HEK293
T1 sequence (P16066 33-1061): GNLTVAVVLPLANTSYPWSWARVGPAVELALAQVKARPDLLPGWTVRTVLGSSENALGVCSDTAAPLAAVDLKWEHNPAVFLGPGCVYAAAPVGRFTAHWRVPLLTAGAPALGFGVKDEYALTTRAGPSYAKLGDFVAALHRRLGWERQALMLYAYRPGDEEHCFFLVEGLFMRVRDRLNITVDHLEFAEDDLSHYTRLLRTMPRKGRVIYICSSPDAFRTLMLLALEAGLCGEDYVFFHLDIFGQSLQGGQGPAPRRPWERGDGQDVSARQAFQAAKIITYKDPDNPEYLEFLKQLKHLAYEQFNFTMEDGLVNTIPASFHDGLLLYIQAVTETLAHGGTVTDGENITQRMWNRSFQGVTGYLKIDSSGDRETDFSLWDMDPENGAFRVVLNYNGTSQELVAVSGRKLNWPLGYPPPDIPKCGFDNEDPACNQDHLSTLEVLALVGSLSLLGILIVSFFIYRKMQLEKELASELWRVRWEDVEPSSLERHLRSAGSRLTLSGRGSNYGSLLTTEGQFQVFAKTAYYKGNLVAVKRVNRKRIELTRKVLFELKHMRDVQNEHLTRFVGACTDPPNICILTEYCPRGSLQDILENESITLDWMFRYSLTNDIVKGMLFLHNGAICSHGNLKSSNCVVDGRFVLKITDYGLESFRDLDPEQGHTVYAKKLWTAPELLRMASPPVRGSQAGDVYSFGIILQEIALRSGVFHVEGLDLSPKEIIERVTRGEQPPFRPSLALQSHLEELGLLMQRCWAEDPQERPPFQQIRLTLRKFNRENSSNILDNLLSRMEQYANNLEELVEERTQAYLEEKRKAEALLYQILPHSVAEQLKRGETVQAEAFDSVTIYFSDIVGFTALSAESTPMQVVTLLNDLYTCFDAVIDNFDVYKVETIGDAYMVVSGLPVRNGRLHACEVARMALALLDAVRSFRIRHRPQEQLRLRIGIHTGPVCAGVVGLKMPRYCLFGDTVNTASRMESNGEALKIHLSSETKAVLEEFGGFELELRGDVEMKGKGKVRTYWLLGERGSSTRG
T1 sequence (P01160 124-151 partner limits assumed): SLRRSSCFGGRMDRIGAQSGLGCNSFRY
Experiment: cGMP production by HTRF in HEK293 cells overexpressing pGC-A, with ANP
Assay type: cell-based
Settings: for EC50 / Max efficacy: HEK293 cells overexpressing pGC-A; for EC50: test compound plus EC20 concentration of ANP, cGMP by HTRF; for Emax: HEK293, HEK293 cells overexpressing pGC-A, read-out: Max efficacy; for Emax / Max efficacy: cGMP normalized to maximal amount produced by an EC80 concentration of ANP
Excerpt: Assay: Generally, the assay monitors the production of cGMP, the second messenger generated by pGC-A, by Time-Resolved Florescence (HTRF) in HEK293 cells overexpressing the pGC-A. pGC-A suspension cells were stimulated in the presence of the test compound and an EC20 concentration of ANP. The quantity of cGMP was detected by competitive immunoassay using Eu^3+ cryptate-labeled anti-cGMP and d2-labeled cGMP and normalized to maximal amount produced by an EC80 concentration of ANP. Compound EC50 values were determined in the primary assay, in the presence or absence of ANP, to determine mode of action as positive modulators and tested for selectivity in the same assay platform but in HEK cells overexpressing the particulate guanylyl cyclase B receptor (pGC-B), of which CNP is the endogenous ligand.
Assay details: 20 nL of 10 μM test compound in DMSO was added to columns 5-48 of 1536 well white high base screening plates (Corning, New York, NY) cells using 550 ECHO acoustic dispenser (Labcyte, San Jose, CA). Alpha-atrial natriuretic peptide (ANP) (Phoenix Pharmaceutics) was prepared as stock aliquots at 5 μM in PBS with 0.1% BSA. An approximate […] concentration of ANP ([…]) in assay buffer (HBSS containing 5 mM HEPES and 0.05% BSA) was added to columns 3-48 at a volume of 1 μL. Assay buffer only was added to column 1 and assay buffer containing a saturating concentration of ANP (5 nM) was added to column 2. HEK293 cells overexpressing GC-A were resuspended in assay media (OptimMem media containing 2% Heat-inactivated Fetal bovine serum and L-glutamine) at a density of 6×10^5 cells/mL and 2 μL were plated in screening plates (1200 cells/well) in suspension using a Bioraptr 2. Plates were spun at 1000 rpm for 1 min and incubated for 30 min at room temperature. 1.5 μL d2-labeled cGMP followed by 1.5 μL Eu^3+ cryptate-labeled anti-cGMP cGMP detection kit (CiBio; #62GM2PEC) prepared according to manufacturer's protocol were added to all wells using a Bioraptr 2 and TR-FRET signal was detected on an EnVision detector (PerkinElmer). Wells treated with 0.3% DMSO only serve as blank controls (column 1); wells treated with 0.3% DMSO and 5 nM ANP (columns 2) serve as positive controls and wells treated with 0.3% DMSO and […] ANP (columns 3-4) serve as negative controls.

CCNC(=O)N1CCCC(C(=O)Nc2nc3c(F)cc(F)cc3s2)C1 (stereo not drawn) [compound 277]
EC50: > 5000 nM

Cc1cccc2sc(NC(=O)C3CCCN(CCN(C)C)C3)nc12 (stereo not drawn) [compound 005]
EC50: > 10000 nM

O=C(Nc1nc2c(F)cc(F)cc2s1)C1CCCN(CCN2CCOCC2)C1 (stereo not drawn) [compound 244]
Emax: 94%
EC50: 280 nM

CN1CCC(N2CCCC(C(=O)Nc3nc4c(Br)cccc4s3)C2)C1 (stereo not drawn) [compound 100]
Emax: 84%
EC50: 250 nM

Cc1ccccc1-c1csc(NC(=O)C2CCCN(CCN(C)C)C2)n1 (stereo not drawn) [compound 151]
EC50: > 5000 nM

O=C(Nc1nc2c(Cl)cc(F)cc2s1)C1CCCN(C2CNC2)C1 (stereo not drawn) [compound 136]
Emax: 46%
EC50: 300 nM

COCCN1CCC(N2CCCC(C(=O)Nc3nc4c(F)cc(F)cc4s3)C2)C1 (stereo not drawn) [compound 093]
Emax: 86%
EC50: 90 nM

CN1CCC(N2CCCC(C(=O)Nc3nc4c(F)cc(F)cc4s3)C2)CC1 (stereo not drawn) [compound 071]
Emax: 93%
EC50: 200 nM

O=C(Nc1nc2c(F)cc(F)cc2s1)C1CNCc2ccccc21 (stereo not drawn) [compound 060]
EC50: > 5000 nM

CN(C)CCN1CCCC(C)(C(=O)Nc2nc3c(F)cc(F)cc3s2)C1 (stereo not drawn) [compound 228]
EC50: > 5000 nM

CN1CC(N2CCCC(C(=O)Nc3nc4c(F)cc(F)cc4s3)C2)C1 (stereo not drawn) [compound 084]
Emax: 83%
Max efficacy: 67%
EC50: 70 nM and 20 nM

CN(C)CCN1CCCC(C(=O)Nc2nc(-c3ccc(F)cc3)cs2)C1 (stereo not drawn) [compound 147]
EC50: > 5000 nM

N[C@H]1CCC[C@H](C(=O)Nc2nc3c(F)cc(F)cc3s2)C1 [210C]
EC50: 1900 nM

O=C(Nc1nc2c(F)cc(F)cc2s1)c1ccc(Cl)cc1 [compound 202]
EC50: > 10000 nM

CN(C)CCN1CCCC(C(=O)Nc2nc(-c3ccccc3Cl)cs2)C1 (stereo not drawn) [compound 148]
EC50: > 5000 nM

CN(C)CCC1CCN(c2nc3c(F)cc(F)cc3s2)C(=O)C1 (stereo not drawn) [compound 220]
EC50: > 5000 nM

CN1CCCCC1CN1CCCC(C(=O)Nc2nc3c(F)cc(F)cc3s2)C1 (stereo not drawn) [compound 073]
Emax: 94%
EC50: 400 nM

CN(C)CCCN1CCCCC1C(=O)Nc1nc2c(F)cc(F)cc2s1 (stereo not drawn) [compound 041]
Emax: 101%
EC50: 1530 nM

COc1cccc(-c2csc(NC(=O)C3CCCN(CCN(C)C)C3)n2)c1 (stereo not drawn) [compound 155]
EC50: > 5000 nM

CN(C)CCN[C@@H]1CCC[C@H](C(=O)Nc2nc3c(F)cc(F)cc3s2)C1 [compound 207]
EC50: > 5000 nM

O=C(O)CNCCN1CCCC(C(=O)Nc2nc3c(F)cc(F)cc3s2)C1 (stereo not drawn) [compound 260]
EC50: > 5000 nM

CN(C)CCN1CCCC(C(=O)Nc2nc(-c3cccc(F)c3)cs2)C1 (stereo not drawn) [compound 146]
EC50: > 5000 nM

O=C(Nc1nc2c(F)cc(F)cc2s1)C1CNc2ccccc2C1 (stereo not drawn) [compound 058]
Emax: 95%
EC50: 2600 nM

COCc1cc(F)c2nc(NC(=O)C3CCCNC3)sc2c1 (stereo not drawn) [compound 030]
EC50: > 5000 nM

O=C(Nc1nc2c(F)cc(F)cc2s1)C1CNCCN1C(=O)OCc1ccccc1 (stereo not drawn) [compound 043]
EC50: > 5000 nM

O=C(Nc1nc2c(F)cc(F)cc2s1)C1CCCN(c2ccnc(F)c2)C1 (stereo not drawn) [compound 106]
Emax: 101%
EC50: 3500 nM

Cc1cncnc1N1CCCC(C(=O)Nc2nc3c(F)cc(F)cc3s2)C1 (stereo not drawn) [compound 111]
Emax: 65%
EC50: 400 nM

O=C(Nc1nc2c(F)cc(F)cc2s1)c1ccc(-c2ccccc2)cc1 [compound 206]
EC50: > 10000 nM

COc1ccccc1C(=O)Nc1nc2c(F)cc(F)cc2s1 [compound 203]
EC50: > 10000 nM

CN(C)CCN1CCCC(C(=O)Nc2nc3c(C(F)(F)F)cccc3s2)C1 (stereo not drawn) [compound 002]
EC50: > 10000 nM

O=C(Nc1nc2c(F)cc(F)cc2s1)C1CCCN(CCNCCO)C1 (stereo not drawn) [compound 240]
Emax: 105%
EC50: 700 nM

CN(C)CCN1CC(O)CC(C(=O)Nc2nc3c(F)cc(F)cc3s2)C1 (stereo not drawn) [compound 262]
Emax: 86%
EC50: 400 nM

CN(C)CCN1CCCC(C(=O)Nc2nc3ccccc3s2)C1 (stereo not drawn) [compound 216]
EC50: > 10000 nM

O=C(Nc1nc2c(F)cc(F)cc2s1)C1CCCN(C2CCCC2)C1 (stereo not drawn) [compound 099]
Emax: 91%
EC50: 600 nM

CN(C)CCN1CCCC(C(=O)Nc2nc3c(F)ccc(F)c3s2)C1 (stereo not drawn) [compound 234]
EC50: > 5000 nM

Cn1cc(N2CCCC(C(=O)Nc3nc4c(F)cc(F)cc4s3)C2)cn1 (stereo not drawn) [compound 078]
Emax: 86%
Max efficacy: 81%
EC50: 4900 nM and 2100 nM

CN(C)CCN[C@@H]1CCCC[C@@H]1C(=O)Nc1nc2c(F)cc(F)cc2s1 [compound 211]
EC50: 1530 nM

O=C(Nc1nc2c(F)cc(F)cc2s1)C12CCC(CC1)NC2 [compound 062]
Emax: 92%
EC50: 3400 nM

O=C(Nc1nc2c(F)cc(F)cc2s1)C1CCCN(C(=O)Nc2ccccc2)C1 (stereo not drawn) [compound 280]
EC50: > 5000 nM

O=C(Nc1nc2c(F)cc(F)cc2s1)c1ccccc1Cl [compound 200]
EC50: > 10000 nM

CN(C)CCN1CC(C(=O)Nc2nc3c(F)cc(F)cc3s2)Cc2ccccc21 (stereo not drawn) [compound 057]
EC50: > 5000 nM

O=C(Nc1nc2c(F)cc(F)cc2s1)C1CCCN(C(=O)NCc2ccccc2)C1 (stereo not drawn) [compound 279]
EC50: > 5000 nM

CN(C)CCN1CCCC(C(=O)Nc2nc3cc(F)ccc3s2)C1 (stereo not drawn) [compound 010]
EC50: > 10000 nM

CCC(C)N1CC(N2CCCC(C(=O)Nc3nc4c(Cl)cc(F)cc4s3)C2)C1 (stereo not drawn) [compound 137]
Emax: 80%
EC50: 80 nM

CN(C)CCN1CCCC(C(=O)N(C)c2nc3c(F)cc(F)cc3s2)C1 (stereo not drawn) [compound 232]
Emax: 82%
EC50: 2100 nM

CN(C)C1CCN(CC(=O)Nc2nc3c(F)cc(F)cc3s2)CC1 [compound 219]
Emax: 91%
EC50: 1500 nM

CNCCN1CCCC(C(=O)Nc2nc3c(F)cc(F)cc3s2)C1 (stereo not drawn) [compound 237]
Max efficacy: 74% and 51%

CN1CCCC(CN2CCCC(C(=O)Nc3nc4c(F)cc(F)cc4s3)C2)C1 (stereo not drawn) [compound 074]
Emax: 80%
EC50: 1100 nM

O=C(Nc1nc2c(F)cc(F)cc2s1)C1CCCN(C2CNC2)C1 (stereo not drawn) [compound 085]
Emax: 89%
Max efficacy: 84%
EC50: 80 nM and 200 nM

O=C(Nc1nc2c(F)cc(F)cc2s1)C1CCCN(c2ccncc2)C1 (stereo not drawn) [compound 081]
Emax: 87%
Max efficacy: 87, 87, 87%
EC50: 100 nM and 70 nM and 300 nM

O=C(Nc1nc2c(F)cc(F)cc2s1)C1CCCN(CCN2CCCC2=O)C1 (stereo not drawn) [compound 245]
Emax: 102%
EC50: 4500 nM and 1800 nM

CN(C)CCN1CCC(C(=O)Nc2nc3c(F)cc(F)cc3s2)CC1 [compound 227]
Emax: 93%
EC50: 1500 nM

CN(C)CCN1CCCC(C(=O)Nc2ncc(-c3ccccc3)s2)C1 (stereo not drawn) [compound 169]
EC50: > 5000 nM
